The target in experiment [1] is T1, Runt-related transcription factor 1/Core-binding factor subunit beta (Homo sapiens, UniProt Q01196+Q13951). The experiment can be described thus: Runt domain/CBFb-SMMHC interaction disruptors – biochemical, TR-FRET (AID 1438). It is filed as protein assay.
Experiment [2] addresses T1, Runt-related transcription factor 1/Core-binding factor subunit beta. The experiment can be described thus: disruptors of Runt domain/CBFb-SMMHC interaction – biochemical, FRET, Cerulean-Runt, Venus-CBFb-SMMHC, uHTS, […] (AID 1434). It is filed as protein assay.
Experiment [3] concerns the target DNA dC->dU-editing enzyme APOBEC-3A (Homo sapiens, UniProt P31941). The experiment can be described thus: Dose Response confirmation of small molecule APOBEC3A DNA Deaminase Inhibitors via a fluorescence-based single-stranded DNA deaminase assay. [Related pubchem assays (depositor defined):AID493011, AID493024]. It is filed as functional.
Experiment [4] addresses DNA dC->dU-editing enzyme APOBEC-3G (Homo sapiens, UniProt Q9HC16). It is filed as functional.
Experiment [5] has as its target Peroxisome proliferator-activated receptor gamma/Nuclear receptor coactivator 1 (Homo sapiens, UniProt P37231). The experiment can be described thus: TR-FRET dose response biochemical High Throughput Screening assay for agonists of the steroid receptor coactivator 1 (SRC-1) recruitment by the peroxisome proliferator-activated receptor gamma (PPAR gamma): non-selective agonists. [Related pubchem assays (depositor defined):AID1300, AID1808, AID504735, AID631]. It is filed as protein assay.

Experiment [6] has as its target Peroxisome proliferator-activated receptor gamma/Nuclear receptor coactivator 3 (Homo sapiens, UniProt P37231). Kind of experiment: TR-FRET dose response biochemical High Throughput Screening assay for agonists of the steroid receptor coactivator 3 (SRC-3) recruitment by the peroxisome proliferator-activated receptor gamma (PPAR gamma): non-selective agonists. [Related pubchem assays: 1301 (Confirmation screen.), 1048 (Primary screen.)]. It is filed as functional.

Experiment [7] deals with Peroxisome proliferator-activated receptor gamma/Nuclear receptor coactivator 2 (Homo sapiens, UniProt P37231). The experiment can be described thus: TR-FRET dose response biochemical High Throughput Screening assay for agonists of the steroid receptor coactivator 2 (SRC-2) recruitment by the peroxisome proliferator-activated receptor gamma (PPAR gamma): non-selective agonists. [Related pubchem assays: 1297, 1032 ]. It is filed as functional.

The nature of experiment [8]: Vero E6 cell cytotoxicity, dose response, cytotoxicity control for non-replicating M. tuberculosis project, secondary assay (AID 492998). It is filed as functional, VeroE6. The note with it: Vero C1008.
A short description of experiment [9]: THP-1 cell cytotoxicity, dose response, cytotoxicity control for non-replicating M. tuberculosis project (AID 489025). It is filed as functional.
Experiment [10] can be described thus: cells. It is filed as functional.
Experiment [11] deals with T2, Mannose-6-phosphate isomerase (Homo sapiens, UniProt P34949).
T2 sequence (P34949 whole entry): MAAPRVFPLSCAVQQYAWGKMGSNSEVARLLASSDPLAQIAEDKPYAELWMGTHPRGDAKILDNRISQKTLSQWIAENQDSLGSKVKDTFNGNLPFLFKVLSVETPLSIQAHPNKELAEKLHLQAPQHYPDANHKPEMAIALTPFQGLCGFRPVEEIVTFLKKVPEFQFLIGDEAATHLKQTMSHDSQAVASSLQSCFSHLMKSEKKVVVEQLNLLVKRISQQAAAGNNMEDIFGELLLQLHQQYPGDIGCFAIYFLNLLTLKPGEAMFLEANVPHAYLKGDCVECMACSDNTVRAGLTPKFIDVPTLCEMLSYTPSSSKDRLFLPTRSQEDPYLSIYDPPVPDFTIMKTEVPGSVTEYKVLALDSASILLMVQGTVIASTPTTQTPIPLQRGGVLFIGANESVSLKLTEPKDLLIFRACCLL
The experiment can be described thus: MPI enzyme activity inhibition – biochemical, fluorescence intensity, coupled assay, primary screen (AID 1209).

Experiment [12] deals with Nonstructural protein 1 (Influenza A virus, UniProt Q194T2). It is filed as functional, Influenza A virus (A/California/07/2009(H1N1)).
Experiment [13] deals with T2, Mannose-6-phosphate isomerase. Kind of experiment: MPI inhibition at elevated mannose 6-phosphate – biochemical, fluorescence intensity, high mannose 6-phosphate, primary screen (AID 1220).
For experiment [14], the target named is Glucose-6-phosphate 1-dehydrogenase (Homo sapiens, UniProt P11413). Kind of experiment: inhibition of Homo sapiens G6PD, dose series – biochemical, fluorescence, selectivity assay for P. falciparum G6PD inhibitor project, dose response (AID 504792). It is filed as functional.
The nature of experiment [15]: microbe, parasite or virus in culture. It is filed as functional. As to conditions: Mycobacterium tuberculosis.
Experiment [16] deals with HEK293. Kind of experiment: cells. It is filed as functional, cell-based. As to conditions: Homo sapiens.
The subject of experiment [17] is HEK293. The experiment can be described thus: NOD2 signaling inhibitors in MDP-stimulated cells, cell-based, uHTS, luminescence (AID 2001). It is filed as functional. As to conditions: Homo sapiens.
For experiment [18], the system named is HEK293. The experiment can be described thus: inhibition of NOD1-driven NF-kB reporter – cell-based, luminescence, uHTS, primary screen (AID 1578). It is filed as functional. As to conditions: Homo sapiens.
The target of experiment [19] is T3, Microphthalmia-associated transcription factor (Homo sapiens, UniProt O75030).
T3 sequence (O75030 whole entry): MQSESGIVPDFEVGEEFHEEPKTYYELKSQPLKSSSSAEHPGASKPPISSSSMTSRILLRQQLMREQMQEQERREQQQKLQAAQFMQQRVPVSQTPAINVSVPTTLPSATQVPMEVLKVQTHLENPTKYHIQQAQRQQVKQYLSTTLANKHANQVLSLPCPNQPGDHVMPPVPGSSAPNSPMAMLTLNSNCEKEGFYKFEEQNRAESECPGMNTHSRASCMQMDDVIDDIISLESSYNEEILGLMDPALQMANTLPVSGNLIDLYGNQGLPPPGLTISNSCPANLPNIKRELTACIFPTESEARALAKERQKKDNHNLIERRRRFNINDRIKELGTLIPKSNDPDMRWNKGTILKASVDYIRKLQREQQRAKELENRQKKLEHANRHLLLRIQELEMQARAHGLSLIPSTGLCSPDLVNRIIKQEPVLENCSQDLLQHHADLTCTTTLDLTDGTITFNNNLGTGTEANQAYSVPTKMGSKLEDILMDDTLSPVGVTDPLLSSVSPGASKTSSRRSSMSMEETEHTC
Kind of experiment: reducers of TRPM1 reporter luminescence, concentration series – cell-based, SK-MEL-5, cherry-picked, set 3, MITF inhibitor project, dose response (AID 493073).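 Note: SK-MEL-5 melanoma cells with luciferase driven by the MITF target TRPM1 promoter.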 It is filed as functional.

The target in experiment [20] is Nucleotide-binding oligomerization domain-containing protein 2 (Homo sapiens, UniProt Q9HC29). Kind of experiment: inhibition of NOD2-driven NF-kB reporter – cell-based, luminescence, uHTS, HEK293 (AID 1566). It is filed as functional.
In experiment [21] the target is T4, Protein RecA (Mycobacterium tuberculosis, UniProt P9WHJ3).
T4 sequence (P9WHJ3 whole entry): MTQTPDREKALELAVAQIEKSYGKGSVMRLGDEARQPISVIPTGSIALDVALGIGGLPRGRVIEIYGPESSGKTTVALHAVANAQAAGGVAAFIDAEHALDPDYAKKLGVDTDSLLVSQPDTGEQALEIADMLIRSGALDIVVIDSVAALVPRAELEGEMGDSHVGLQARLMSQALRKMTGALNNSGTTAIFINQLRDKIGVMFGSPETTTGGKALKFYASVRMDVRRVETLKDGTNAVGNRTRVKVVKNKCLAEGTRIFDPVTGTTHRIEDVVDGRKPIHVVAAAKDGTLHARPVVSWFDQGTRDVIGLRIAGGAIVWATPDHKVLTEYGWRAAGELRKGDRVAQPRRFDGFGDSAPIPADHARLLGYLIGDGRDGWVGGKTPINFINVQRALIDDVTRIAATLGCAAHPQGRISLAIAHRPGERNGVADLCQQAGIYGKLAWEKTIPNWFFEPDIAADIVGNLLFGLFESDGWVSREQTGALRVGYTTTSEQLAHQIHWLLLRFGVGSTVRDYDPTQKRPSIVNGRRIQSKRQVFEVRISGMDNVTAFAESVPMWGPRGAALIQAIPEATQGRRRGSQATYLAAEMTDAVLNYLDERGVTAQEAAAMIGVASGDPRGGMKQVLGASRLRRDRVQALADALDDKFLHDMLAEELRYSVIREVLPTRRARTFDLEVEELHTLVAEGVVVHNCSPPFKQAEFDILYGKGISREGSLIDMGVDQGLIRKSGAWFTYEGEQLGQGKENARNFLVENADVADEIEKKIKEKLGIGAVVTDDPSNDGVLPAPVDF
The experiment can be described thus: Fluorescence Cell-Free Homogeneous Dose Retest to Identify Inhibitors of RecA-Intein Splicing Activity. [Related pubchem assays (depositor defined):AID2097, AID2223, AID489010, AID492950]. It is filed as functional.

Experiment [22] has as its system HEK293. The experiment can be described thus: cells. It is filed as functional, cell-based. The note with it: Homo sapiens. The source holds these as a separate data set.
For experiment [23], the system named is HEK293. The experiment can be described thus: cells. It is filed as functional, cell-based. The note with it: Homo sapiens. The source holds these as a separate data set.
For experiment [24], the target named is T5, Replicative DNA helicase DnaB (Mycobacterium tuberculosis, UniProt P9WMR3).
T5 sequence (P9WMR3 whole entry): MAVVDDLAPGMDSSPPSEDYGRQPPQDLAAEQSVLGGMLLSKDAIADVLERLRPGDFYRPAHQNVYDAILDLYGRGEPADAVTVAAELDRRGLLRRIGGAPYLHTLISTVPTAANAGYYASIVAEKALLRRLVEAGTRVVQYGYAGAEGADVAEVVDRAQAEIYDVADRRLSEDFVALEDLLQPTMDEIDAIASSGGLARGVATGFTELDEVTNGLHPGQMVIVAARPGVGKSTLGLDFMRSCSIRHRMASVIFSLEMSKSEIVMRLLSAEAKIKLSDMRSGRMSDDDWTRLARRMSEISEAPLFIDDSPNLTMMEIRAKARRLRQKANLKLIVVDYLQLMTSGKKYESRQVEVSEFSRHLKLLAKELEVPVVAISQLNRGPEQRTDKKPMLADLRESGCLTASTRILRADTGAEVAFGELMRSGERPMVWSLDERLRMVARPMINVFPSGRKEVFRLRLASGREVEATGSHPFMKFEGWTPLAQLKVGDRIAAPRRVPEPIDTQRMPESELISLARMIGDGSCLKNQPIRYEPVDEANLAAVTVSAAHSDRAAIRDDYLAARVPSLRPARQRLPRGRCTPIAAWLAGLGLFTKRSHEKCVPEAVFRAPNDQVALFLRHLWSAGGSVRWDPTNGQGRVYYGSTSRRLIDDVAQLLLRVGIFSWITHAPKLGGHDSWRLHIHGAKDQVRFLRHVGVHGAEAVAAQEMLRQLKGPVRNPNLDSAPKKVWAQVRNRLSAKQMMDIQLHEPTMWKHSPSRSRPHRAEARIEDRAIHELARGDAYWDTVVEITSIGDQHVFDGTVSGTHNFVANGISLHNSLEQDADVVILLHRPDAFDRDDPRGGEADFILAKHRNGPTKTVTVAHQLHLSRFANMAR
Kind of experiment: DnaB intein splicing inhibitors, dose response, biochemical, cell-free fluorescence (AID 449749). It is filed as functional.

We go through ten compounds from ChEMBL document CHEMBL1201862, “PubChem BioAssay data set” (2004).

Calls of active or inactive are those of the source.

DNA dC->dU-editing enzyme APOBEC-3G, sequence (Q9HC16 whole entry): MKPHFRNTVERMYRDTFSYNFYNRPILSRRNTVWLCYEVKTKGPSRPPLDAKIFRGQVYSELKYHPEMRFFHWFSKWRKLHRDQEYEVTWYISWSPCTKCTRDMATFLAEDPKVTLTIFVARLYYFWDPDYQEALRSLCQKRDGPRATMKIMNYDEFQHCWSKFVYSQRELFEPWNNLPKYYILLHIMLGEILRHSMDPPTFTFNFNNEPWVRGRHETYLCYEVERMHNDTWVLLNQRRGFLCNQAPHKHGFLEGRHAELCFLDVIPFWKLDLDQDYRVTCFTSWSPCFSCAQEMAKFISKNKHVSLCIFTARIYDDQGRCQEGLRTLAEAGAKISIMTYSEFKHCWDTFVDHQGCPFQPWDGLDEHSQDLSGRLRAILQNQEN
Peroxisome proliferator-activated receptor gamma/Nuclear receptor coactivator 3, sequence (P37231 whole entry): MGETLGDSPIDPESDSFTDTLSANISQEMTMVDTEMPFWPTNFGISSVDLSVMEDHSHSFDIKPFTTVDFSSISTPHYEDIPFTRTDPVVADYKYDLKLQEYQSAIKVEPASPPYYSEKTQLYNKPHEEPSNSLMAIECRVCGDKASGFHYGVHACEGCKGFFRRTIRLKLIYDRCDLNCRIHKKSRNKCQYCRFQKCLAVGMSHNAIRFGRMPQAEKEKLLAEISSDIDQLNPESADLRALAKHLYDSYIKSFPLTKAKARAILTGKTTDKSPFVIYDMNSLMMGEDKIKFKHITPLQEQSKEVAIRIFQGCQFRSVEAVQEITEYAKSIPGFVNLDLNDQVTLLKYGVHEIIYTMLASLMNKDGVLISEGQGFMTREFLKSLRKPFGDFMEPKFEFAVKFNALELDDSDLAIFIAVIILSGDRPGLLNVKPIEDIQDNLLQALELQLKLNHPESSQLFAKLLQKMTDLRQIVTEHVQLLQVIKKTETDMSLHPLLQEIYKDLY
Peroxisome proliferator-activated receptor gamma/Nuclear receptor coactivator 3, sequence (Q9Y6Q9 whole entry, further chain): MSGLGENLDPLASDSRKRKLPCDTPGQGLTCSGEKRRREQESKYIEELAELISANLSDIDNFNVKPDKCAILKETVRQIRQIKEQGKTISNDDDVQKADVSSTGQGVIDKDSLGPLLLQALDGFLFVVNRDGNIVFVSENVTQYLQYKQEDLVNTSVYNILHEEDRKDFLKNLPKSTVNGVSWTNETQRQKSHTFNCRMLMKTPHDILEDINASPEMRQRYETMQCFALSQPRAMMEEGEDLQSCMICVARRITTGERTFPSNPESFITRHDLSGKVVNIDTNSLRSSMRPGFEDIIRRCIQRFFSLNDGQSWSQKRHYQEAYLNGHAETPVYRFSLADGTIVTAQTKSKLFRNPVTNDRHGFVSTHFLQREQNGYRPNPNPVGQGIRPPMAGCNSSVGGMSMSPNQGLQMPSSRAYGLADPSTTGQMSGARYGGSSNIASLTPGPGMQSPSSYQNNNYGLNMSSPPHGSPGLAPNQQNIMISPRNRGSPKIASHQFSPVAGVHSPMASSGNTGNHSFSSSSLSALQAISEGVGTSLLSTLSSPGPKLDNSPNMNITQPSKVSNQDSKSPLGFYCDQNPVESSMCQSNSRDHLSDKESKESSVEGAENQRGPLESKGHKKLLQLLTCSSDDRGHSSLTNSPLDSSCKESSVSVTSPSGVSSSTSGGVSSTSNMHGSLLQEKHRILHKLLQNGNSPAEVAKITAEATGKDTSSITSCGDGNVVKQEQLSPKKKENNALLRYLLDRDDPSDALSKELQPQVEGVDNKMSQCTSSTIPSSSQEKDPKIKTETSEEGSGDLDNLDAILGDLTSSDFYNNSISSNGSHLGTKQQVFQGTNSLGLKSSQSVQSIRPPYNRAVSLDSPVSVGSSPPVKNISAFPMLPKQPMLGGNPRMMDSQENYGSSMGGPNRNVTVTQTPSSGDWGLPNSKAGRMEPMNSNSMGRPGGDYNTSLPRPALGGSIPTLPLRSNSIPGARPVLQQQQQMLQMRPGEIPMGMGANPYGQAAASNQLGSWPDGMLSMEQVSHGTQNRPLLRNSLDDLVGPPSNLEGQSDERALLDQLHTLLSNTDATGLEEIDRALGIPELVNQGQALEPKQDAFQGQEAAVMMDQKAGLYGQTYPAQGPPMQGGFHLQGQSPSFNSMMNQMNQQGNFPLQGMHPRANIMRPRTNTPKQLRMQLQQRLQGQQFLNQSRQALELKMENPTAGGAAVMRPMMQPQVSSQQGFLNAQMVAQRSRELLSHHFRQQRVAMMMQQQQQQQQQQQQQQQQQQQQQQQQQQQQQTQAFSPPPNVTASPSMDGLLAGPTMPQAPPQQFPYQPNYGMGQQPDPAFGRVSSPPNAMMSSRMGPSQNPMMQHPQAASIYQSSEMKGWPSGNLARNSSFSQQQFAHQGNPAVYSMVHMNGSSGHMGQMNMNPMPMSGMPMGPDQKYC
Peroxisome proliferator-activated receptor gamma/Nuclear receptor coactivator 1, sequence (P37231 whole entry): as the sequence (P37231 whole entry) above
Peroxisome proliferator-activated receptor gamma/Nuclear receptor coactivator 1, sequence (Q15788 whole entry, further chain): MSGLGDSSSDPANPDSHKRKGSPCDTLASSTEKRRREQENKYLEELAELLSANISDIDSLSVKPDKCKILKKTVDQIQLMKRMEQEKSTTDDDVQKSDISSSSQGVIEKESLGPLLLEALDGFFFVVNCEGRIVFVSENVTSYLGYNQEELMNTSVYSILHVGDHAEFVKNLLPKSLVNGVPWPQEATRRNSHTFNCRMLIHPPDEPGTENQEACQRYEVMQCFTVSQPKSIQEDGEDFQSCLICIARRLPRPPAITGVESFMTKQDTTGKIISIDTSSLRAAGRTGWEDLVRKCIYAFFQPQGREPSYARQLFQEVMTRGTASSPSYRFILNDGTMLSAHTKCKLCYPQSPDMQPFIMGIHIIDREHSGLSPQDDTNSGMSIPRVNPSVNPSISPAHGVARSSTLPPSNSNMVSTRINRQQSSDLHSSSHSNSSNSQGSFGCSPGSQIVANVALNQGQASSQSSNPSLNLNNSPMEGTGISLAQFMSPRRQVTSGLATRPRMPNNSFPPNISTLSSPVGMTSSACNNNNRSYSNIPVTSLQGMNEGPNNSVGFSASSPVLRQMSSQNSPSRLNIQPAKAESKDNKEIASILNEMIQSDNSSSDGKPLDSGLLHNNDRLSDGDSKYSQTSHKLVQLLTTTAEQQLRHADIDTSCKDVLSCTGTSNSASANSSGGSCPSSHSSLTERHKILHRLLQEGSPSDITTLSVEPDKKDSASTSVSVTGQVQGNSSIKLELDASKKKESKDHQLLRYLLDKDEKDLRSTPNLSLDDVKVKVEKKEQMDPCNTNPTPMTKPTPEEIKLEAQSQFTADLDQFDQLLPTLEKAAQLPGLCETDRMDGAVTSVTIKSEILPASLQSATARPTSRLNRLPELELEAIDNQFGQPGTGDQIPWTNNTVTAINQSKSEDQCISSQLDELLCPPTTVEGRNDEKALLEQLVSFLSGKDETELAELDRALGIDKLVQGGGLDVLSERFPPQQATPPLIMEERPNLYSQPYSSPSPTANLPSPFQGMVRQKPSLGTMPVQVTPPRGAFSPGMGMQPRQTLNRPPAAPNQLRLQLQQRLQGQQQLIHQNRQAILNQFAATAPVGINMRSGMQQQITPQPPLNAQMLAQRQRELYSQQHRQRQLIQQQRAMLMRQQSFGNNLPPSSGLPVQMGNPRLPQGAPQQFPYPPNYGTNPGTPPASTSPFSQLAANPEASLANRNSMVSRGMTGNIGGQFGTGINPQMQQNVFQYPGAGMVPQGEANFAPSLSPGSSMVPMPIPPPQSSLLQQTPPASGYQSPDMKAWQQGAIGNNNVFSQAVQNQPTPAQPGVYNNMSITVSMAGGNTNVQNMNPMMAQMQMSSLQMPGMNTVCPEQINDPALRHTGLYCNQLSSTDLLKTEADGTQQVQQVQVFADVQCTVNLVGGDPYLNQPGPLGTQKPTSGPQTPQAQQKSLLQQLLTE
T1 sequence (Q01196 whole entry, the tested form may be a part): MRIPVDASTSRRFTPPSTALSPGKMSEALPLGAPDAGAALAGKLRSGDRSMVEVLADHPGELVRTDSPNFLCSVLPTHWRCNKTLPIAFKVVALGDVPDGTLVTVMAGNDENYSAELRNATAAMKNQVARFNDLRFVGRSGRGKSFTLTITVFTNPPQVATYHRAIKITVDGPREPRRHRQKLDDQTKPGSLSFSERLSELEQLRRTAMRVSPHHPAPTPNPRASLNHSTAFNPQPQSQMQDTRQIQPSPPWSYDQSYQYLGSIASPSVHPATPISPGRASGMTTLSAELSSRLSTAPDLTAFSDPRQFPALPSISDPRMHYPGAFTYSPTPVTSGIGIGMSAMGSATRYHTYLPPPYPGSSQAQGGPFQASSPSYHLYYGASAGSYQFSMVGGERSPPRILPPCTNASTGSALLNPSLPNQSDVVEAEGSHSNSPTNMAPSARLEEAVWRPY
T1 sequence (Q13951 whole entry, the tested form may be a part): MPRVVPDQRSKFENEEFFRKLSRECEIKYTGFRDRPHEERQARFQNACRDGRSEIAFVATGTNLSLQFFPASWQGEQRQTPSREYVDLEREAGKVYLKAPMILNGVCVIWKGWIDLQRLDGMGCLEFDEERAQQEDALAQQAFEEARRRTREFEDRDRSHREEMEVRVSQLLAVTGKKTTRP

With `CCCOc1ccc(C2C(C(=O)OC)=CN(CCOC)C=C2C(=O)OC)cc1`, the values for the IC50 in experiment [1] and in [2] were > 100 µM (inactive) and 2.22 µM (active), respectively.
Take `CCN1C(NCCCOC(C)C)=N[C@@H](CCc2ccccc2)[C@H](C(=O)NCCCOC(C)C)[C@H]1C`: the IC50 in experiment [3] is 2.91 µM (active); in [4], 3.6 µM (active).
For the compound `Cc1cccc[n+]1C1C(c2ccccc2)C(C#N)=C([C-](C#N)C#N)NC1(O)C1CC1` (centres undefined), the results for the EC50 in experiment [5], in [6] and in experiment [7] were > 79.4 µM (inactive), > 79.4 µM (not active) and > 79.4 µM (not active), respectively.
Consider `Cc1cc2nc(-c3ccc(SCc4ccccc4C#N)nc3)[nH]c2cc1C`, for which the results for the EC50 in [5], in experiment [6] and in [7] were > 79.4 µM (inactive), > 79.4 µM (not active) and > 79.4 µM (not active), respectively.
In the case of `Cn1c(-[n+]2c(-c3ccccc3)cc(-c3ccccc3)cc2-c2ccccc2)nc2cc([N+](=O)[O-])ccc21`, the 50% inhibitory concentration (IC50) in experiment [3] was 19.1 µM (active); in experiment [4], 22.7 µM (active).
Consider `C/[N+]([O-])=C\c1ccc2cccc(O)c2n1`, for which the CC50 in experiment [8] was 15.6 µM (active); in experiment [9] it was 35 µM (active). For the same compound, the IC50 in [10] was 11.6 µM (active); in [11] it was 16.4 µM (active); in [12], 1.68 µM (active); in experiment [13], 11.8 µM (active); in experiment [14], > 80 µM (inactive).
`COc1ccc(N(CC(=O)NCCSc2ccc(C)cc2)S(=O)(=O)c2ccccc2)c(OC)c1`: the results for the IC50 in experiment [3] and in [4] were 10.9 µM (active) and 9.82 µM (active), respectively.
With `FC(F)(Cl)c1nnc2ccc(Cl)nn12`, the figures for the CC50 in experiment [8], in [9] and in experiment [15] were 16.7 µM (active), 10.8 µM (active) and 16.5 µM (active), respectively. In addition, the concentration for half-maximal inhibition (IC50) in [10] is 0.75 µM (active).
For the compound `O=C(CCl)N1N=C(c2ccco2)CC1c1cccs1` (centres undefined), the IC50 in [16] is > 20 µM (inactive); in experiment [17], 4.77 µM (active); in experiment [22], 5.32 µM (active); in experiment [23], > 20 µM (inactive). In addition, the EC50 is 7.24 µM (active) in [18], 16.7 µM (active) in experiment [20] and 2.16 µM (active) in experiment [21]. In addition, the AC50 in experiment [19] is 7.84 µM (active); in experiment [24] it was 92.5 µM (active).
Regarding `Oc1ccc(/N=C/c2ccc(-c3cccs3)s2)cc1`, the values for the IC50 in experiment [1] and in experiment [2] were > 100 µM (inactive) and 4.2 µM (active), respectively. In addition, the half-maximal effective concentration (EC50) in experiment [5] was 8.81 µM (active); in [6], 73 µM (not active); in [7], 12 µM (not active).
